According to patent US5783178A, “Polymer linked biological agents” (Supratek Pharma. Inc., priority 1994, dated 1998):
Values after ≈ are worked out from the molar mass of the structure shown. Like-named read-outs stand apart in the source and are kept apart here.

How the values were obtained:
[1] = Solution stability in PBS (dissolved daunorubicin monitored by fluorescence); format: physicochemical; details: 37°, PBS pH 7.0, 0.2 μM
[2] = test system: Dox-MCF-7; experiment: Micellar agent delivery, cytotoxicity against Dox-MCF-7; format: cell-based; details: Homo sapiens
[3] = test system: Sp2-resistant myeloma cells; experiment: Tumor treatment, Sp2-resistant tumors; format: in vivo, female Balb C mice; details: i.v. at MTD
[4] = test system: SKOV3 line of transformed cells (SK cells); experiment: Cytotoxicity towards SK cells (XTT); format: cell-based; details: Homo sapiens
[5] = in vivo; details: mouse, ip
[6] = test system: murine myeloma cell line Sp2/0 (Sp2); experiment: Cytotoxicity towards Sp2 cells (XTT); format: cell-based; details: Mus musculus, Example 7
[7] = test system: SKVLB cell line (SK-resistant cells); experiment: Cytotoxicity towards SK-resistant cells (XTT); format: cell-based
[8] = test system: MCF-7 line of human breast cancer cells; experiment: Micellar agent delivery, cytotoxicity against MCF-7; format: cell-based; details: MCF7
[9] = test system: Sp2 myeloma cell line; experiment: Tumor treatment, Sp2 tumors; format: in vivo, female Balb C mice; details: i.v. at MTD
[10] = test system: MCF-7AU; experiment: Micellar agent delivery, cytotoxicity against MCF-7AU; format: cell-based; details: Homo sapiens
[11] = test system: Sp2-resistant cell line; experiment: Cytotoxicity towards Sp2-resistant cells (XTT); format: cell-based, murine; details: Mus musculus, Example 7
[12] = test system: SK cells; experiment: Activity of conjugated TNFα on SK cells (XTT); format: cell-based; details: 24 hours

## COc1cccc2c1C(=O)c1c(O)c3c(c(O)c1C2=O)C[C@@](O)(C(C)=O)C[C@@H]3O[C@H]1C[C@H](N)[C@H](O)[C@H](C)O1 [Free daunorubicin, daunorubicin]
[1]; 0 hours incubation
  I585 (% of initial): 100 % of initial
[1]; 6 hours incubation, read-out: I585 (% of initial)
  remaining at 6 h, 0.2 µM: 92%
[1]; 27 hours incubation, read-out: I585 (% of initial)
  remaining at 27 h, 0.2 µM: 89%
[1]; 43 hours incubation, read-out: I585 (% of initial)
  remaining at 43 h, 0.2 µM: 68%
[1]; 78 hours incubation, read-out: I585 (% of initial)
  remaining at 78 h, 0.2 µM: 54%
[1]; 120 hours incubation, read-out: I585 (% of initial)
  remaining at 120 h, 0.2 µM: 37%
[2]
  inhibition at 0.016 µg/mL: 2%
  inhibition at 0.08 µg/mL: 7%
  inhibition at 0.4 µg/mL: 39%
  inhibition at 2 µg/mL: 62%
  inhibition at 10 µg/mL: 86%
  inhibition at 50 µg/mL: 100%
[3]; day 0 after first treatment
  V/V0: 1
[3]; day 3 after first treatment
  V/V0: 2.7
[3]; day 6 after first treatment
  V/V0: 3.4
[3]; day 8 after first treatment
  V/V0: 5.1
[3]; day 10 after first treatment
  V/V0: 6.6
[3]; day 13 after first treatment
  V/V0: 11.6
[3]; day 16 after first treatment
  V/V0: 20.9
[3]; day 20 after first treatment
  V/V0: 25.9
[3]; day 23 after first treatment
  V/V0: 38.4
[3]; day 27 after first treatment
  V/V0: 50.9
[3]; day 31 after first treatment
  V/V0: 68.3
[3]; day 34 after first treatment
  V/V0: 73.0
[3]; day 38 after first treatment
  V/V0: 83.4
[3]; day 42 after first treatment
  V/V0: 113.8
[3]; day 45 after first treatment
  V/V0: 111.9
[4]; SK-OV-3, Example 5, 1 h exposure, 4 days culture, daunorubicin content basis, read-out: IC50
  IC50: 0.32 µg/mL (≈ 0.607 µM)
[4]; SK-OV-3, Example 6, methods of Example 5
  IC50: 5.2 µg/mL (≈ 9.86 µM)
[5]
  LD50 at 336 h: 7 mg/kg
  MTD at 336 h: 5 mg/kg
[6]
  IC50: 0.22 µg/mL (≈ 0.417 µM)
[7]; Example 5, 1 h exposure, 4 days culture, daunorubicin content basis
  IC50: 2.55 µg/mL (≈ 4.83 µM)
[7]; Example 6, methods of Example 5
  IC50: 45 µg/mL (≈ 85.3 µM)
[8]
  inhibition at 0.016 µg/mL: 15%
  inhibition at 0.08 µg/mL: 43%
  inhibition at 0.4 µg/mL: 69%
  inhibition at 2 µg/mL: 91%
  inhibition at 10 µg/mL: 100%
  inhibition at 50 µg/mL: 100%
[9]; day 0 after first treatment
  V/V0: 1
[9]; day 4 after first treatment
  V/V0: 1.5
[9]; day 7 after first treatment
  V/V0: 2.4
[9]; day 12 after first treatment
  V/V0: 8.8
[9]; day 14 after first treatment
  V/V0: 10.9
[9]; day 17 after first treatment
  V/V0: 16.8
[9]; day 21 after first treatment
  V/V0: 17.5
[9]; day 25 after first treatment
  V/V0: 16.1
[9]; day 28 after first treatment
  V/V0: 15.8
[9]; day 32 after first treatment
  V/V0: 15.9
[9]; day 35 after first treatment
  V/V0: 15.7
[10]
  inhibition at 0.016 µg/mL: 3%
  inhibition at 0.08 µg/mL: 9%
  inhibition at 0.4 µg/mL: 37%
  inhibition at 2 µg/mL: 65%
  inhibition at 10 µg/mL: 89%
  inhibition at 50 µg/mL: 100%
[11]
  IC50: 2.6 µg/mL (≈ 4.93 µM)

## human tumor necrosis factorα [TNFα]
[12]; TNFα concentration 0.01 (unit not given)
  Inhibition, % (± SD): 0%
[12]; TNFα concentration 0.05 (unit not given)
  Inhibition, % (± SD): 2 (± 2) %
[12]; TNFα concentration 0.2 (unit not given)
  Inhibition, % (± SD): 5 (± 3) %
[12]; TNFα concentration 1.0 (unit not given)
  Inhibition, % (± SD): 4 (± 4) %
[12]; TNFα concentration 5 (unit not given)
  Inhibition, % (± SD): 10 (± 5) %
[12]; TNFα concentration 20 (unit not given)
  Inhibition, % (± SD): 22 (± 5) %
[12]; TNFα concentration 50 (unit not given)
  Inhibition, % (± SD): 35 (± 7) %
[12]; TNFα concentration 100 (unit not given)
  Inhibition, % (± SD): 44 (± 6) %
[12]; TNFα concentration 200 (unit not given)
  Inhibition, % (± SD): 80 (± 14) %
